melting point [°C]	SMILES
204 to 207	CCCCNC(=O)C(C)CC(O)C(Cc1cccc(F)c1)NC(=O)C1=Cc2ccccc2Oc2ccccc21 (stereo not shown) [Example 17, Dibenzo[b,f]oxepine-10-carboxylic acid [4-butylcarbamoyl-1-(3-fluorobenzyl)-2-hydroxy-pentyl]-amide]
229 to 230	CCCCNC(=O)C(C)CC(O)C(Cc1ccccc1)NC(=O)c1cc2ccccc2c(=O)c2ccccc12 (stereo not shown) [Example 11, 5-Oxo-5H-dibenzo[a,d]cycloheptene-10-carboxylic acid (1-benzyl-4-butylcarbamoyl-2-hydroxy-pentyl)-amide]
174 to 176	CCCCNC(=O)C(C)CC(O)C(Cc1cc(F)cc(F)c1)NC(=O)C1=Cc2ccccc2Oc2ccccc21 (stereo not shown) [Example 16, Dibenzo[b,f]oxepine-10-carboxylic acid [4-butylcarbamoyl-1-(3,5-difluorobenzyl)-2-hydroxy-pentyl]-amide]
153 to 155	CCCCNC(=O)C(C)CC(O)C(Cc1ccccc1)NC(=O)C1=Cc2ccccc2Oc2cc(Cl)ccc21 (stereo not shown) [Example 9, 7-Chloro-dibenzo[b,f]oxepine-10-carboxylic acid (1-benzyl-4-butylcarbamoyl-2-hydroxy-pentyl)-amide]
